The values below come from a melting point compilation (Tetko et al.; mined from patent text by program, amines drawn as free bases though some values may be those of a salt).

What is called melting point is the temperature, or range, at which the solid turns liquid.

On to `Oc1ccc(N2CCN(c3ccc4ccccc4n3)CC2)cc1`, for which the melting point was found to be 198 °C.
With `CCOC(=O)c1ccc2c(c1)c(C)c(C)n2C(C)=O` the figure was 98 to 101 °C.
Take `Cc1cc(-c2ccc3c(c2)c2cc(-c4ccc(Cl)cc4Cl)c(=O)n(C)c2n3C)[nH]n1`: the melting point lay within 309 to 310 °C.
As for `CC(C)(C)c1cc(CCc2cc(F)cc(F)c2NC(=O)NC23CC4CC(CC(C4)C2)C3)cc(C(C)(C)C)c1O`, the melting point lay in the range of 218 to 220 °C.
With `O=C(O)CN1CCCCC1` the figure was 185 to 187 °C; with `CCOC(=O)c1cnc(-c2ccc(OC)cc2OC)[nH]c1=O`, 190 to 192 °C; with `COc1ccc(CC(=O)C=NN=P(c2ccccc2)(c2ccccc2)c2ccccc2)cc1`, 111 to 112 °C.
`Clc1cc(Cl)cc(-c2n[nH]cc2Cl)c1` gave a melting point of 192 °C.
With `N=C(Nc1ccc(CCCC(=O)Nc2ccccc2)cc1)c1cccs1` the figure was 229 to 231 °C; with `CC[C@@H](C1CC1)n1cc(Cl)nc(N2CCc3cc(Br)cc(Br)c32)c1=O`, 165 °C; with `C#Cc1cccc(NC(=O)c2cc(-c3ccc(F)cc3F)ccc2O)c1`, 215 to 216 °C.
Molecule `CCc1ccc(Nc2c(F)c(F)cc(F)c2F)c(CC(=O)OC(C)(C)C(=O)O)c1` displayed a melting point of 104 to 108 °C.
With `COc1ccc(C(=O)Nc2ccc3ccc(Oc4ccccc4)nc3n2)cn1` the figure was 115 to 120 °C.
With `COC(=O)C1=C(C)NC(C)=C(C(=O)OC)C1c1cccc(NC(=NC#N)N(C)CCCN2CCC(c3ccccc3)CC2)c1`, the melting point lay in the range of 135 to 145 °C.
With `CCc1cc2c(cc1CC)C(=O)C(N=[N+]=[N-])=CC2=O`, the melting point fell in the range of 74 to 76 °C.
`CCCCC[N+]([O-])=[N+]([O-])CC` returned a melting point of 184 to 185 °C.
With `COc1ccc(C[C@@H](CO)NC(=O)c2ccnc(Br)c2)cc1OC` the figure was 151 to 153 °C.
With `CC(=O)Nc1ccc(C=[N+]([O-])Cc2ccccc2)cc1` the figure was 231 to 238 °C.
As for `COc1ccc2c(c1)C(=O)c1ccc(C(=O)O)cc1CC2`, the melting point fell in the range of 201 to 203 °C.
With `COc1ccc(C(=O)c2cc3ccccc3o2)c(Cl)c1Cl` the figure was 148 °C; with `OCC=C(c1ccccc1)c1ccccc1`, 112 to 115 °C; with `O=C1Nc2cccc(-c3cccc(NC(=O)c4ccc([N+](=O)[O-])cc4)c3)c2/C1=C/c1ccc[nH]1`, 157 to 159 °C.
In turn, `Cc1cccc(C)c1NC(=O)NCCCNC(C)C` returned a melting point of 152 to 154 °C.
With `COc1ccc2c(c1)C(C)(CC#N)C(=O)N2C` (stereo not drawn) the figure was 75.5 to 76 °C; with `FC(F)(F)c1ccc2sc(CCl)nc2c1`, 52 °C.
With `Cc1cc2c(c(C)c1NC(=O)CC(C)(C)C)C(c1ccc(C(C)C)cc1)CO2` (stereo not drawn) the figure was 130 to 131 °C; with `COC(=O)c1c(Br)c(F)cc2nn(C)cc12`, 146 to 147 °C.
With `COC(=O)c1ccc(NC(=O)C(CC(=O)O)c2ccccc2)cc1` (stereo not drawn) the figure was 190 °C; with `CC(F)(F)S(=O)(=O)c1c(C(N)=S)nn(-c2c(Cl)cc(C(F)(F)F)cc2Cl)c1N`, 228 to 229 °C.
`O=C(Nc1cccc([N+](=O)[O-])c1)NC1CC(C(=O)O)Nc2cc(Cl)cc(Cl)c21` (stereo not drawn) displayed a melting point of 209 to 210 °C.
With `CC1(C)CCC(C)(C)c2cc(-c3cc(CO)cc(-c4ccc(C(=O)O)cc4)c3)ccc21` the figure was 213 °C.
With `CC1=NN(c2cc(-c3ccnc(Nc4cccc(Cl)c4)n3)ccn2)C(=O)C1` the figure was 149 to 150 °C; with `Cc1c(NC(=O)c2ccnc(NCc3ccc(=O)[nH]c3)c2)cccc1C(F)(F)F`, 196 to 201 °C.
`CC1(c2ccc([N+](=O)[O-])cc2)OCCO1` displayed a melting point of 69 to 71 °C.
`CCCCCCCNC(=O)Nc1ccccc1C(=O)NC1CCCN(C(c2ccccc2)c2ccccc2)C1` (stereo not drawn): the melting point stood at 112 °C.
With `COc1cc(C(=O)Nc2cccc3c2CN(C)CC3)cc(OC)c1OC` the figure was 177 to 178 °C; with `O=C(NCCCn1ccnc1)c1cccc(Cl)c1`, 125 to 127 °C.
Regarding `Nc1nc(Cl)c(Cl)nc1CO`, the melting point fell in the range of 174 to 176 °C.
As for `CCn1nc(-c2ccccc2)c(-c2csc(-c3ccc(OC)cc3)n2)c(Nc2cccnc2)c1=O`, the melting point fell in the range of 201 to 202 °C.
On to `COc1ccc(CC(=O)c2cc(OC)c(OC)cc2C)cc1OC`, for which the melting point came to 115 °C.
With `Cc1ncn(Cc2ccc(NC(=O)C(F)(F)F)cc2C(F)(F)F)c1C` the figure was 238 to 239 °C; with `O=C(O)c1ccc(F)cc1NC(=O)C(F)(F)F`, 166 to 168 °C; with `COC(=O)Nc1ccc(C(=O)O)cc1`, 195 to 196 °C.
In turn, `O=C(Nc1ccc(-n2nc(C(F)(F)F)cc2C(F)(F)F)cc1)c1cccnc1Cl` returned a melting point of 145 to 147 °C.
On to `Cc1[nH]c(=O)[nH]c(=O)c1N1CCN(Cc2ccccc2)CC1`, for which the melting point came out at 263 °C.
As to `CC(C)(C)OC(=O)NCCc1ccc(Oc2cc(C#N)ccn2)cc1`, the melting point fell in the range of 92 to 96 °C.
With `Cc1cc(O)n2nc(S(=O)(=O)O)nc2n1` the figure was > 300 °C.
With `Cc1cccc(C=CC(=O)O)c1[N+](=O)[O-]` the figure was 230 to 235 °C.
Take `CC(=O)Nc1ccc(OCCCCl)cc1`: the melting point was 125 to 127 °C.
With `Nc1cc(C(c2cc(F)ccc2F)S(=O)(=O)c2ccc(F)cc2)c(Cl)cn1` (stereo not drawn) the figure was 157 to 159 °C; with `CC(C)(C)c1ccc2c(c1)C(CO)c1cc(C(C)(C)C)ccc1S2`, 158 to 159 °C.
Take `CCCCCCOc1ccc(OC)c(Cc2cnc(N)nc2N)c1`: the melting point was in the range of 139 to 140 °C.
With `CC(C)NC(=O)N1N=C(c2ccc([N+](=O)[O-])cc2)c2cc(Cl)ccc2CC1C` (stereo not drawn) the figure was 172 to 174 °C; with `CC(C)(Cc1ccc(O)cc1)NCC(O)c1cc(OCc2ccccc2)cc2c1OCC(=O)N2` (stereo not drawn), 255 to 258 °C.
In the case of `CCCc1c(OCC(O)CSc2ccc(C(=O)CCC(=O)O)c(F)c2)ccc(C(C)=O)c1O` (stereo not drawn), the melting point was 136 to 137 °C.
With `Cc1ccccc1CN1CCc2ccc(C(=O)CCC(=O)N3CCC(c4ccc(Cl)cc4)CC3)cc2CC1` the figure was 108 to 109 °C; with `Clc1ccc(OCc2ccnc3ncnn23)cc1`, 193 to 194 °C; with `O=C(O)c1c(Cl)ccc2c1OCCO2`, 162 °C.
With `CCOC(=O)COc1ccc(N)cc1C(F)(F)F` the figure was 78 to 80 °C.
With `O=C(O)CCC(CNCC(CO)(NC(=O)OC1C2CC3CC(C2)CC1C3)C(=O)c1c[nH]c2ccccc12)c1ccccc1` (stereo not drawn) the figure was 117 to 122 °C; with `COc1cc(-c2cn(-c3cccc(OCCn4ccnc4)c3)c3ncnc(N)c23)ccc1OCc1ccccc1`, 122 to 124 °C.
For `COC(=O)C1(CCN(C)C)c2ccccc2N(C)c2ccc(Cl)cc21` (stereo not drawn), the melting point was found to be 106 °C.
The molecule `CCC1c2c(ncn2C)CCN1C(=S)NC(C)C` (stereo not drawn) yielded a melting point of 196 °C.
As for `CCCCCCCCCCSc1ccc(Br)cc1`, the melting point was 37 to 39 °C.
With `COC(=O)C1=C(C)NC(c2cnc(Cl)s2)=NC1c1ccc(F)cc1Cl` (stereo not drawn) the figure was > 230 °C; with `COc1ccc(-c2ccc3c(c2)c2c(C=Cc4ccccc4)ccnc2n3S(=O)(=O)c2ccccc2)cc1`, 190 to 192 °C; with `O=c1[nH]c(-c2cccc(Oc3ccc4c(c3)S(=O)(=O)N=C3CCCN34)c2)no1`, > 250 °C.
For `O=Cc1ccc(-c2ccc(-c3ccc(C=O)o3)cc2)o1`, the melting point lay within 233 to 234 °C.
As for `CNC1CCc2[nH]c3c(F)cc(F)cc3c2C1` (stereo not drawn), the melting point lay in the range of 135 to 138 °C.
With `CC[C@@H](c1ccccc1)N(Cc1ccc(C(=O)NCC(=O)O)cc1)S(=O)(=O)c1ccc(Cl)cc1` the figure was 136 to 139 °C; with `CCCC1Cc2c3c(c(C)c(C)c2C1=O)OC(C(=O)O)C3` (stereo not drawn), 161 °C.
With `O=c1[nH]nnn1-c1ccc(OCc2ccc(F)cc2)cc1F` the figure was 171 to 172 °C; with `COc1ccc2c(c1OCc1ccccc1)CC(C(=O)O)N(C(=O)Cc1c(Cl)cccc1Cl)C2` (racemic), 205 to 207 °C.
With `Cc1cnc2c(c1)CCCC2S(=O)(=O)c1ccccc1` (stereo not drawn) the figure was 84 to 86 °C; with `CS(=O)(=O)c1ccc(-c2cnn(-c3cccc(Cl)c3)c(=O)c2COC(=O)c2ccccc2)cc1`, 50 to 70 °C; with `Cn1nc(OC(c2ccccc2)c2ccccc2)c(=O)nc1Cl`, 182 to 184 °C.
Take `O=c1c2c(Cl)cc(Cl)cc2n(Cc2ccccc2)c(=O)n1Cc1ccc(Br)cc1`: the melting point is 163 to 168 °C.
The molecule `CS(=O)(=O)N1CCCn2c(nc3c(N)nc4ccccc4c32)C1` returned a melting point of 280 °C.
Take `C=CCN1CCc2cc(OC)c(OC)c3c2C1Cc1cc(OC)c(OC)cc1-3` (single isomer, unassigned; (+)): the melting point is 139 to 143 °C.
Take `O=C(NCCC1CCCCC1)NCCC1CCCCC1`: the melting point was 150 to 152 °C.
With `Cc1ccc(S(=O)(=O)Oc2ccc(S(=O)(=O)c3c(-c4ccccc4)cn4ccccc34)cc2)cc1` the figure was 168 °C.
With `Fc1ccc(CNC(=S)N2CCc3c([nH]c4ccccc34)C2c2ccc3c(c2)OCO3)cc1` (stereo not drawn) the figure was 137 to 139 °C.
`CCCCCCCCCCCOc1cccc(CCCC(NC(C)=O)(C(=O)OCC)C(=O)OCC)c1` showed a melting point of 38 to 39 °C.
With `C#CCOc1cc(Oc2ccc(Cl)c(Cl)c2)ncn1` the figure was 109 °C; with `Cn1cc(C(=O)NCc2ccc(Cl)cc2)c(=O)c2cc(CN3CCOCC3)cc(C#Cc3cccnc3)c21`, 195 to 197 °C.
With `OCc1ccc(OCc2coc(-c3ccccc3)n2)cc1`, the melting point lay in the range of 141 to 142 °C.
With `CC(C)(C)c1cc(Cc2nc(S)n[nH]2)cc(C(C)(C)C)c1O` the figure was 184 to 185 °C.
With `C(=C\c1nc(COc2ccccc2CCCn2cncn2)co1)/c1ccccc1` the figure was 72 to 73 °C.
